According to US20030153056A1, “Glycosyltransferase proteins” (priority 2000, published 2003):

T1: Brainiac β1-3-N-acetylglucosaminyltransferase (Drosophila melanogaster, UniProt Q24157)
T1 construct: The full coding region of Brainiac was prepared by PCR using genomic DNA; made in house; host or cells: High Five insect cells (baculovirus vector pVL1393); microsomal fractions
T1 sequence (Q24157 1-325): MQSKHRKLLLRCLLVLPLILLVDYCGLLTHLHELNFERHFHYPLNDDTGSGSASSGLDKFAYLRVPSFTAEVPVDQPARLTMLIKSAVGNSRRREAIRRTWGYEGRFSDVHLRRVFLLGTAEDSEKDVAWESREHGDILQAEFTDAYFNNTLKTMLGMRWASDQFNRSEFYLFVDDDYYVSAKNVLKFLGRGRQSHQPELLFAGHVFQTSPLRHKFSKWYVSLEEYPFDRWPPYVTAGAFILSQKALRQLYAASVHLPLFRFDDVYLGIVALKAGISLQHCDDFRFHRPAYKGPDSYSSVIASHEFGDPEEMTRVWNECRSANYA


Tests used:
[1] = biological target: T1, Brainiac β1-3-N-acetylglucosaminyltransferase; assay: Substrate specificities of Brainiac β1-3-N-acetylglucosaminyltransferase (acceptor panel, microsomal preparations); format: biochemical; conditions: microsomes of pVL-Brainiac infected High Five cells, background of irrelevant construct subtracted, donor UDP-GlcNAc
[2] = biological target: T2, Notch (Drosophila melanogaster, UniProt P07207); assay: Delta-AP binding to Notch transfected S2 cells; format: cell-based
T2 construct: expressed in transfected cells; host or cells: Drosophila Schneider S2 cells, transient transfection, pRmHa3
Method: Cell culture and Binding assays: cDNAs for expression in Schneider S2 cells were cloned into pRmHa3. Cells were transiently transfected by the CaPO4 method using 6-8 μg of DNA per well in 6 well plates. Expression was induced by addition of 0.7 mM CuSO4 for 2 days. Conditioned medium was collected from Notch-AP and Delta-AP transfected cells 2 days after induction. AP activity was adjusted to normalise activity levels of Notch-AP or Delta-AP expressed with or without Fringe. Binding was performed as described in Cheng and Flanagan, 1994. In brief, AP-containing supernatants were supplemented with 0.1% NaN3, and incubated 90 min at room temperature. Cells were washed 5 times in HBSS containing 0.05% BSA and 0.1% azide, and lysed in 10 mM Tris pH 8, 1% Triton-X100. Endogenous AP was inactivated by heat treatment for 10 min 60° C. and the lysates clarified by centrifugation. AP activity was measured in 1M Diethanolamine, 1 mM MgCl2, 5 mM para-nitrophenyl phosphate. Bound AP activity was quantified in 96 well plates using a microplate reader and Micromanager software (BioRad). An additional replicate of each transfection was prepared for immunoblot analysis. Lysates were prepared separately for Immunoblot analysis to allow inclusion of protease inhibitors which are not used in the binding assay. To measure interaction of Delta-AP with transiently transfected S2 cells, bound AP activity was quantified in an enzymatic colour reaction. Cells transfected with empty vector were used as a control. […] AP activity is shown in mOD units/minute in cell extracts (replicate experiments are shown in this figure). In this experiment Fringe stimulated binding by over 50 fold. […] However, the assay allows measurement of Fringe-dependent stimulation of Delta-AP binding.

T2 sequence (P07207 53-2703): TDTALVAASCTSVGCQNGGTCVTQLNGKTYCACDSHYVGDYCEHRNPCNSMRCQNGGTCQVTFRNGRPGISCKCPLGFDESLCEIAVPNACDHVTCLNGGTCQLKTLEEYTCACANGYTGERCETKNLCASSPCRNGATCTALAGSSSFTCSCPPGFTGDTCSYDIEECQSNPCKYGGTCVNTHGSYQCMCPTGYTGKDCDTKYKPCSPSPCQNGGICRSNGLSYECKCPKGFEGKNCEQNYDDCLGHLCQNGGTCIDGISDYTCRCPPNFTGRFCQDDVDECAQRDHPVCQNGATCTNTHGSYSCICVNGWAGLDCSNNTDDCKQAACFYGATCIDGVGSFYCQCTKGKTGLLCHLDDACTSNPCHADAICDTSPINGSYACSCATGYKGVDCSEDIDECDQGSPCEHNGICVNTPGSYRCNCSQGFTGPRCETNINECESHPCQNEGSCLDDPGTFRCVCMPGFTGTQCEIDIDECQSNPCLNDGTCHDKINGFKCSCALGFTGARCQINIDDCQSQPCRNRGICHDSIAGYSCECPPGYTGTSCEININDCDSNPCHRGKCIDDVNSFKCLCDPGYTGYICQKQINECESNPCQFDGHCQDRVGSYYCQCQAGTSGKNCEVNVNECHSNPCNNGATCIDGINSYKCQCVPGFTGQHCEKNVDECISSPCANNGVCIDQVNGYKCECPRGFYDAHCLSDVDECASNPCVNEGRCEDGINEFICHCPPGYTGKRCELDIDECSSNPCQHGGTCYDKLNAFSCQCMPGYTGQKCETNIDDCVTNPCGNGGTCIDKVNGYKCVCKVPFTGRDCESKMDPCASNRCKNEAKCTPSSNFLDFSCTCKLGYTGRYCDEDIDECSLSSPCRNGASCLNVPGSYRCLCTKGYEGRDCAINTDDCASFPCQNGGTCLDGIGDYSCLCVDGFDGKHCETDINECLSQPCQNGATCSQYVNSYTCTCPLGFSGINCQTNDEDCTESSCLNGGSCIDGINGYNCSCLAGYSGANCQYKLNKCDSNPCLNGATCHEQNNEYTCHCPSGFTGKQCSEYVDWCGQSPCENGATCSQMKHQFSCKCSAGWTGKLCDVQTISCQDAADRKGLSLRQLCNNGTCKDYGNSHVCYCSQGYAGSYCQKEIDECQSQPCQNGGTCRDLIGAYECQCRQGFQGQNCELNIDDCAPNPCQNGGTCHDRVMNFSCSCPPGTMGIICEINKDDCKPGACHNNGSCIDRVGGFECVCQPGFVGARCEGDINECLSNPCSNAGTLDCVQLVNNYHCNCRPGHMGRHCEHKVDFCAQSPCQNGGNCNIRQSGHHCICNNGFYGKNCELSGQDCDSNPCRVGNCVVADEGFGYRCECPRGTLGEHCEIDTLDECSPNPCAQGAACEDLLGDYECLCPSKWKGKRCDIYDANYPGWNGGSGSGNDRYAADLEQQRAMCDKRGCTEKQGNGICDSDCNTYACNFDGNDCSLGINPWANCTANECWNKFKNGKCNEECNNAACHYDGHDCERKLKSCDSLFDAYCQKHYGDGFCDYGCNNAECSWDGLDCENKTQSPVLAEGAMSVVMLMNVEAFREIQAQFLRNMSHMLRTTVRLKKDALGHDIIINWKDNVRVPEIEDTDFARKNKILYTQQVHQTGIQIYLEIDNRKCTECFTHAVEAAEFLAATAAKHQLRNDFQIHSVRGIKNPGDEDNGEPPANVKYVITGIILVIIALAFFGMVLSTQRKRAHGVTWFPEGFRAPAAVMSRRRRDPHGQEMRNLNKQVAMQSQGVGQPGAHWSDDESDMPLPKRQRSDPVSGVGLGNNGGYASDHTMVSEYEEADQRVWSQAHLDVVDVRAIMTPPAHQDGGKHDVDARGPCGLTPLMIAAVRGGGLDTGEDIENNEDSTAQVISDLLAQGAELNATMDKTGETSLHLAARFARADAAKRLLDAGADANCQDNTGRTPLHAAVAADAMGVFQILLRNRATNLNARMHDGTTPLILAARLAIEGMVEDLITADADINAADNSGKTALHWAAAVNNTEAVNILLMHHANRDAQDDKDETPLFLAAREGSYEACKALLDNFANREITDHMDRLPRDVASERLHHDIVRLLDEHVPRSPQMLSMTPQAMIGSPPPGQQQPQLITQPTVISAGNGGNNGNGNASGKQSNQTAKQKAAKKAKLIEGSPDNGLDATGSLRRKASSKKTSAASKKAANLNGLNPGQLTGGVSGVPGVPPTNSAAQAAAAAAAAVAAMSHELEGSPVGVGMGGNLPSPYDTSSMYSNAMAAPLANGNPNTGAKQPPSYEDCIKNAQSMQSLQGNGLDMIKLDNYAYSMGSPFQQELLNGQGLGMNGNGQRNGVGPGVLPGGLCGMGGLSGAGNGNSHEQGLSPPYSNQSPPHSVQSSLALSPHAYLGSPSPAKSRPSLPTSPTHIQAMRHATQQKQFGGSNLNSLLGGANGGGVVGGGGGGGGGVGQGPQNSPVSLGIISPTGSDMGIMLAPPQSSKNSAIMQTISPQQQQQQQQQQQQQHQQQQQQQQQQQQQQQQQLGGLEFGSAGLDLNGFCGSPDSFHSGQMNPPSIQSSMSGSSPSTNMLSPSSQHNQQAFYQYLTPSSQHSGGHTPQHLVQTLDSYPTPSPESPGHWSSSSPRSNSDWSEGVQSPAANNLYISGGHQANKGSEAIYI

Molecule	Brainiac activity with substrate ([1]; substrate 2 mM) [nmol/h/mg]	Brainiac activity with substrate ([1]; substrate 20 mM) [nmol/h/mg]	Delta-AP binding, in words ([2]; Notch-expressing cells co-cultured with Fringe-expressing cells for two days (secreted Fringe))	Effect on Delta-AP binding, in words ([2]; co-expressed with Notch in S2 cells)	Stimulation of Delta-AP binding ([2]; co-expressed with Notch in S2 cells, FIG. 3b)
Cc1cc(=O)oc2cc(O[C@H]3O[C@H](C)[C@H](O)[C@H](O)[C@H]3O)ccc12 [D-Fucα1-MeUmb]	0.00	0.00	–	–	–
OC[C@H]1O[C@@H](O[C@H]2[C@H](O)[C@@H](O)C(O)O[C@@H]2CO)[C@H](O)[C@@H](O)[C@H]1O (stereo partly drawn) [Galβ1-4Glc]	0.42	3.08	–	–	–
OC[C@H]1O[C@@H](O[C@@H]2[C@H](O)[C@@H](O)C(O)O[C@@H]2CO)[C@H](O)[C@@H](O)[C@H]1O (stereo partly drawn) [Galβ1-4Gal]	0.00	0.00	–	–	–
Cc1cc(=O)oc2cc(O[C@@H]3O[C@@H](C)[C@@H](O)[C@@H](O)[C@@H]3O)ccc12 [L-Fucα1-MeUmb]	0.00	0.00	–	–	–
OC[C@H]1O[C@@H](O[C@H]2[C@H](O)[C@H](O)C(O)O[C@@H]2CO)[C@H](O)[C@@H](O)[C@H]1O (stereo partly drawn) [Galβ1-4Man]	1.48	8.39	–	–	–
Galβ1-4GlcNAc	0.03	0.12	–	–	–
OC[C@H]1O[C@@H](O[C@H]2[C@H](O)[C@@H](O)[C@H](OCc3ccccc3)O[C@@H]2CO)[C@H](O)[C@@H](O)[C@H]1O [Galβ1-4Glcβ1-Bzl]	0.48	1.69	–	–	–
CC(=O)N[C@H]1[C@H](OCc2ccccc2)O[C@H](CO)[C@@H](O[C@@H]2O[C@H](CO)[C@H](O)[C@H](O)[C@H]2O)[C@@H]1O [Galβ1-4GlcNAcβ1-Bzl]	0.04	0.02	–	–	–
C[C@H]1OC(O)[C@H](O)[C@@H](O)[C@H]1O (stereo partly drawn) [D-Fuc]	0.01	0.01	–	–	–
C[C@@H]1OC(N)[C@@H](O)[C@H](O)[C@@H]1O (stereo partly drawn) [L-Fucosylamine]	0.28	0.60	–	–	–
O=[N+]([O-])c1ccccc1O[C@@H]1O[C@H](CO)[C@H](O)[C@H](O)[C@H]1O [Galβ1-oNph]	0.21	0.02	–	–	–
CC(=O)N[C@@H]1C(O)O[C@H](CO)[C@@H](O[C@@H]2O[C@H](CO)[C@H](O)[C@H](O)[C@H]2O)[C@@H]1O (stereo partly drawn) [Galβ1-4ManNAc]	0.10	0.42	–	–	–
C[C@@H]1O[C@H](Oc2ccc([N+](=O)[O-])cc2)[C@@H](O)[C@H](O)[C@@H]1O [L-Fucβ1-pNph]	0.01	0.02	–	–	–
Cc1cc(=O)oc2cc(O[C@@H]3O[C@H](CO)[C@H](O)[C@H](O)[C@H]3O)ccc12 [Galβ1-MeUmb]	0.19	0.00	–	–	–
Fringe: Drosophila Fringe protein with a single C-terminal myc-epitope tag (protein, UniProt Q24342 1-412, looked up, C-terminal myc tag) Fringe glycosyltransferase: MMSLTVLSPPQRFKRILQAMMLAVAVVYMTLLLYQSAYGYPGIQVPHSQVDALASEAVTTHRDQLLQDYVQSSTPTQPGAGAPAASPTTVIIRKDIRSFNFSDIEVSERPTATLLTELARRSRNGELLRDLSQRAVTATPQPPVTELDDIFISVKTTKNYHDTRLALIIKTWFQLARDQTWFFTDTDDHYYQEKTKGHLINTKCSQGHFRKALCCKMSAELDVFLESGKKWFCHFDDDNYVNVPRLVKLLDEYSPSVDWYLGKPSISSPLEIHLDSKNTTTNKKITFWFATGGAGFCLSRALTLKMLPIAGGGKFISIGDKIRFPDDVTMGFIIEHLLKVPLTVVDNFHSHLEPMEFIRQDTFQDQVSFSYAHMKNQWNVIKVDGFDMKTDPKRFYSLHCQLFPYFSFCPPR	–	–	Delta-AP bound at background level	large increase in Delta-AP binding	over 50 fold

Next, values leading:

Brainiac activity with substrate ([1]; substrate 2 mM) [nmol/h/mg]	Brainiac activity with substrate ([1]; substrate 20 mM) [nmol/h/mg]	Delta-AP binding, in words ([2]; Notch-expressing cells co-cultured with Fringe-expressing cells for two days (secreted Fringe))	Effect on Delta-AP binding, in words ([2]; co-expressed with Notch in S2 cells)	Stimulation of Delta-AP binding ([2]; co-expressed with Notch in S2 cells, FIG. 3b)	Molecule
0.00	0.00	–	–	–	CO[C@H]1O[C@H](CO)[C@@H](O)[C@H](O[C@H]2O[C@H](CO)[C@@H](O)[C@H](O)[C@@H]2O)[C@@H]1O [Manα1-3Manα1-Me]
0.36	0.61	–	–	–	COC1OC(CO)C(O)C(O)C1O (stereo not drawn) [Manα1 -Me]
0.15	0.16	–	–	–	CO[C@H]1O[C@H](CO)[C@@H](O)[C@H](O)[C@@H]1O[C@@H]1O[C@H](CO)[C@@H](O)[C@H](O)[C@@H]1O [Manβ1-2Manα1-Me]
1.46	2.74	–	–	–	CO[C@@H]1O[C@H](CO)[C@@H](O)[C@H](O)[C@@H]1O [Manβ1-Me]
0.11	0.17	–	–	–	Cc1cc(=O)oc2cc(O[C@H]3O[C@H](CO)[C@@H](O)[C@H](O)[C@@H]3O)ccc12 [Manα1-MeUmb]
0.01	0.08	–	–	–	OC[C@H]1O[C@H](OC[C@H]2O[C@H](OCc3ccccc3)[C@@H](O)[C@@H](O[C@H]3O[C@H](CO)[C@@H](O)[C@H](O)[C@@H]3O)[C@@H]2O)[C@@H](O)[C@@H](O)[C@@H]1O [Manα1-6(Manα1-3)Manα1-Bzl]
5.25	6.18	–	–	–	Cc1cc(=O)oc2cc(O[C@@H]3O[C@H](CO)[C@@H](O)[C@H](O)[C@@H]3O)ccc12 [Manβ1-MeUmb]
0.00	0.00	–	–	–	CC(=O)N[C@H]1[C@H](O[C@H]2[C@@H](O)[C@@H](CO)O[C@@H](O[C@H]3[C@H](O)[C@@H](O)C(O)O[C@@H]3CO)[C@@H]2O)O[C@H](CO)[C@@H](O)[C@@H]1O[C@@H]1O[C@H](CO)[C@H](O)[C@H](O)[C@H]1O (stereo partly drawn) [lacto-N-tetraose]
0.00	0.00	–	–	–	CO[C@H]1O[C@H](CO)[C@@H](O[C@H]2O[C@H](CO)[C@@H](O)[C@H](O)[C@@H]2O)[C@H](O)[C@@H]1O [Manα1-4Manα1-Me]
0.09	0.45	–	–	–	OCC1OC(OCC2OC(OCC3OC(O)C(O)C(OC4OC(CO)C(O)C(O)C4O)C3O)C(O)C(OC3OC(CO)C(O)C(O)C3O)C2O)C(O)C(O)C1O (stereo not drawn) [Manα1-3(Manα1-6)Manα1-6(Manα1-3)Man]
0.02	0.05	–	–	–	CO[C@H]1O[C@H](CO[C@H]2O[C@H](CO)[C@@H](O)[C@H](O)[C@@H]2O)[C@@H](O)[C@H](O)[C@@H]1O [Manα1-6Manα1-Me]
0.03	–	–	–	–	CC(=O)N[C@H]1[C@H](O[C@H]2[C@@H](O)[C@@H](CO)O[C@@H](O[C@H]3[C@H](O)[C@@H](O)C(O)O[C@@H]3CO)[C@@H]2O)O[C@H](CO)[C@@H](O[C@@H]2O[C@H](CO)[C@H](O)[C@H](O)[C@H]2O)[C@@H]1O (mixture of isomers) [lacto-N-neo-tetraose]
